According to patent US9326934B2, “Drug delivery from rapid gelling polymer composition” (Angiotech International AG, priority 2002, dated 2016):

Assays:
human fibroblasts = assay: Screening assay for cell proliferation (CYQUANT); type: cell-based; settings: Fibroblast, 72 hours, n=4 replicate experiments, FIG. 6
Method: Fibroblasts at 70-90% confluency are trypsinized, replated at 600 cells/well in media in 96-well plates and allowed to attachment overnight. […] Each drug concentration is tested in triplicate wells.
To terminate the assay, the media is removed by gentle aspiration. […] Plates are incubated at room temperature, protected from light for 3-5 minutes.

THP-1 cells = assay: TNF-alpha production by macrophages (ELISA); type: cell-based, human; settings: 1 mg/mL opsonized zymosan, 24 hours, n=4, FIG. 8, read-out: IC50 TNFα production
Method: The human macrophage cell line, THP-1 is plated in a 12 well plate such that each well contains 1×10^6 cells in 2 mL of media containing 10% FCS. Opsonized zymosan is prepared by resuspending 20 mg of zymosan A in 2 mL of ddH2O and homogenizing until a uniform suspension is obtained. Homogenized zymosan is pelleted at 250 g and resuspended in 4 mL of human serum for a final concentration of 5 mg/mL. and incubated in a 37° C. water bath for 20 minutes to enable opsonization. Bay 11-7082 is prepared in DMSO at a concentration of 10^−2 M and serially diluted 10-fold to give a range of stock concentrations (10^−8 M to 10^−2 M) (J. Immunol. (2000) 165: 411-418; J. Immunol. (2000) 164: 4804-4811; J. Immunol. Meth. (2000) 235 (1-2): 33-40).
THP-1 cells are stimulated to produce TNFα by the addition of 1 mg/mL opsonized zymosan. […]
After a 24 hour stimulation, supernatants are collected to quantify TNFα production. TNFα concentrations in the supernatants are determined by ELISA using recombinant human TNFα to obtain a standard curve. […] The dilution of Capture Antibody used is lot-specific and is determined empirically. […] Stop Solution (2 NH2SO4) is then added to the wells and a yellow colour reaction is read at 450 nm with λ correction at 570 nm. Mean absorbance is determined from triplicate data readings and the mean background is subtracted. […]

IC50 (THP-1 cells) [nM] | SMILES | IC50 (human fibroblasts) [nM]
– | O=C1c2c(O)ccc(O)c2C(=O)c2c(NCCNCCO)ccc(NCCNCCO)c21 [Mitoxantrone, 9,10-Anthracenedione, 1,4-dihydroxy-5,8-bis[[2-[(2-hydroxyethyl)amino]ethyl]amino]-] | 20
810 | Cc1ccc(S(=O)(=O)/C=C/C#N)cc1 [Bay 11-7082] | –
